From PMC8694318, “Discovery of pyrano[2,3-d]pyrimidine-2,4-dione derivatives as novel PARP-1 inhibitors: design, synthesis and antitumor activity” (RSC Advances, 2021) come the findings set out here.

In one test the test system is MCF-7 cells. Nature of the test: Cell proliferation inhibition (MTT) assay, MCF-7. Type of test: cell-based. The conditions noted are these: Homo sapiens, MCF7, 96 h incubation. The method, then:
(§1) We used the MTT [3-(4,5-dimethylthiazol-2-yl)-2,5-diphenyltetrazoliumbromide] (Biomatik, Wilmington, DE) assay to measure cell growth inhibition, which is based on the conversion of MTT to formazan crystals by mitochondrial dehydrogenases.[25] Only in live cells, mitochondrial enzymes can transform MTT into insoluble formazan. After incubated with serially diluted inhibitors for 96 h, cell cultures were incubated with MTT solution (5 mg ml^−1) for 4 h at 37 °C. Then discard the medium and DMSO was added to solubilize the reaction product formazan by shaking for 10 min. Absorbance at 492 nm was measured with a microplate reader (Thermo, MK3). Cell viability was expressed as an IC50 value.

The next test addresses T1, PARP-1 (Homo sapiens, UniProt P09874).
T1 construct: purchased BPS Bioscience 80580
Nature of the test: In vitro PARP-1 inhibitory assay (colorimetric 96-well kit, BPS Bioscience). Type of test: biochemical. Here is the method:
Briefly, the histone mixture was diluted 1 : 5 with 1× PBS, 50 μl of histone solution was added to each well and incubated at 4 °C overnight. The plate was washed three times using 200 μl PBST buffer (1× PBS containing 0.05% Tween-20) per well. Liquid was removed from the wells by tapping the strip wells on clean paper towels. To each well, 200 μl of blocking buffer was added, followed by 60–90 min incubation at room temperature. Then 25 μl of PARP master mixture (consisting of 2.5 μl 10× PARP buffer + 2.5 μl 10× PARP assay mixture + 5 μl activated DNA + 15 μl distilled water) was added to each well. Olaparib was used as a positive control. 5 μl of inhibitor solution of each well labeled as “test inhibitor” was added. For the “positive control” and “blank”, 5 μl of the same solution without inhibitor was added. 1× PARP buffer was prepared by adding 1 part of 10× PARP buffer to 9 parts H2O (v/v), 20 μl of 1× PARP buffer was added to the wells designated as “blank”. The amount of PARP-1 required for the assay was then calculated. The reaction was initiated by adding 20 μl of diluted PARP1 enzyme to the wells designated “positive control” and “test inhibitor control”. The strip wells were incubated at room temperature for 1 hour. The strip wells were then washed three times with 200 μl PBST buffer. Then, 50 μl of 50 times diluted Streptavidin-HRP with blocking buffer was added to each well, and the strips were further incubated at room temperature for 30 min. After washing the wells three times with 200 μl PBST buffer, HRP colorimetric substrate was added to each well and the plate was incubated at the room temperature until a blue color is developed in the positive control well. Then reaction was quenched with […] per well of 2 M sulfuric acid, and absorbance at 450 nm was determined. Carrier solvents were assayed as negative controls. All assays were performed in triplicate. To determine the IC50 value for each inhibitor, the average absorbance of each inhibitor concentration was plotted against the log of the concentration of each respective inhibitor and the IC50 value for each plot was obtained using computer-assisted non-linear regression analyses. Data presented are the results of at least two independent experiments done in triplicate. The results of these studies are presented as mean IC50 (nM).[24]

Another test relates to HCT116 cells. Kind of test: Cell proliferation inhibition (MTT) assay, HCT116. Type of test: cell-based. Particulars: Homo sapiens, HCT-116, 96 h incubation. The method, then: as §1
The mark [1] stands for this setting: colorimetric assay, mean of at least two independent experiments in triplicate, read-out: IC50 against PARP-1 (converted).

Where two headings read alike, the source gives them in different places.

T1 sequence (P09874 whole entry): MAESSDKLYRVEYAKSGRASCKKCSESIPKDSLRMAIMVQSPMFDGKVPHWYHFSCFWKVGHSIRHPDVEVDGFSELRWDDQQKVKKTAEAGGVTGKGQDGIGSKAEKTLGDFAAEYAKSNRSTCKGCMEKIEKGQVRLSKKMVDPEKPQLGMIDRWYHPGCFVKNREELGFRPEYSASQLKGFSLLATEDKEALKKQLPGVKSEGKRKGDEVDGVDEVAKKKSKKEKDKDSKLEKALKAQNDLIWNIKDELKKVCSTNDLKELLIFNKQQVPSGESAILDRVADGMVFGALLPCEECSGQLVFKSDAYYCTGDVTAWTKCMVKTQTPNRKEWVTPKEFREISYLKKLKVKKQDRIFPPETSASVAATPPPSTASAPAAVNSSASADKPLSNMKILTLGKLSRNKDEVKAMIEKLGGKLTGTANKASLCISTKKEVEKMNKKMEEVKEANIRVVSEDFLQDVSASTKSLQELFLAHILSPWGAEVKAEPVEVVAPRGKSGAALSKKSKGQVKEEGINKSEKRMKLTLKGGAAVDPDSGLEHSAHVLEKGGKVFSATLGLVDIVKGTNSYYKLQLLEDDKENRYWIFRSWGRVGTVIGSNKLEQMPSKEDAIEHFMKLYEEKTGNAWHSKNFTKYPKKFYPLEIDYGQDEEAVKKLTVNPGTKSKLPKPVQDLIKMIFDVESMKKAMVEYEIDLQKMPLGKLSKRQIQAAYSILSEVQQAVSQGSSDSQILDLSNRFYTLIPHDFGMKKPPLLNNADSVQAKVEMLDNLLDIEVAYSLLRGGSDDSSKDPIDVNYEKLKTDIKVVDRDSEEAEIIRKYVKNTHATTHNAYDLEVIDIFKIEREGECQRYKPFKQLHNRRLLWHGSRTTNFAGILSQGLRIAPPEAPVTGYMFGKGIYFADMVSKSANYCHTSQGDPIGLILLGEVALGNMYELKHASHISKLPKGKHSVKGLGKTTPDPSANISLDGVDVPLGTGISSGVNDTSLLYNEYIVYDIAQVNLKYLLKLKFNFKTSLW

Usually IC50 stands for the concentration that gives 50% inhibition. Regarding `CCO/C=N/C1=C(C#N)C(c2cccs2)c2c([nH]c(=O)[nH]c2=O)O1` (centres unmarked) [Compound S9, (E)-ethyl N-(6-cyano-2,4-dioxo-5-(thiophen-2-yl)-2,3,4,5-tetrahydro-1H-pyrano[2,3-d]pyrimidin-7-yl)formimidate], the IC50 with MCF-7 cells was 8.77 ± 0.15 µM; on PARP-1 (setting [1]) it was 0.0485 ± 0.00325 µM; with HCT116 cells it was 2.9 ± 0.04 µM.
Turning to `Nc1nn(-c2cc([N+](=O)[O-])ccc2[N+](=O)[O-])c2c1Oc1[nH]c(=O)[nH]c(=O)c1C2c1cccs1` (centres unmarked) [Compound S3, 3-amino-1-(2,5-dinitrophenyl)-9-(thiophen-2-yl)-5,9-dihydropyrazolo[3′,4':5,6]pyrano[2,3-d]pyrimidine-6,8(1H,7H)-dione], the results for the IC50 in the test on MCF-7 cells, against PARP-1 and with HCT116 cells were 3.17 ± 1.04 µM, 0.0714 ± 0.00412 µM and 2.8 ± 0.07 µM, respectively.
Turning to `CN[C@@H]1C[C@H]2O[C@@](C)([C@@H]1OC)n1c3ccccc3c3c4c(c5c6ccccc6n2c5c31)C(=O)NC4` [Staurosporine, reference compound], the IC50 with HCT116 cells turned out to be 6.94 ± 0.21 µM.
For the compound `Nc1ncnc2c1Oc1[nH]c(=O)[nH]c(=O)c1C2c1cccs1` (centres unmarked) [Compound S4, 4-amino-10-(thiophen-2-yl)-6,10-dihydro-7H-pyrano[2,3-d:5,6-d']dipyrimidine-7,9(8H)-dione], the IC50 in the test with MCF-7 cells was 0.87 ± 0.07 µM; at PARP-1 (setting [1]), 0.0149 ± 0.00103 µM; at PARP-1 (read-out: IC50 against PARP-1 (converted)), 0.0151 µM; with HCT116 cells it was 6.38 ± 0.11 µM.
For `N#CC1=C(N)Oc2[nH]c(=O)[nH]c(=O)c2C1c1cccs1` (centres unmarked) [Compound S1, 7-amino-2,4-dioxo-5-(thiophen-2-yl)-2,3,4,5-tetrahydro-1H-pyrano[2,3-d]pyrimidine-6-carbonitrile], the IC50 with MCF-7 cells was 12.68 ± 0.12 µM; at PARP-1 (setting [1]), 0.0491 ± 0.00232 µM; in the test on HCT116 cells it was 24.1 ± 1.14 µM.
The corresponding values for `O=c1[nH]c2c(c(=O)[nH]1)C(c1cccs1)c1[nH]c(=S)[nH]c(=S)c1O2` (centres unmarked) [Compound S5, 10-(thiophen-2-yl)-2,4-dithioxo-1,2,3,4,6,10-hexahydro-7H-pyrano[2,3-d:5,6-d']dipyrimidine-7,9(8H)-dione] are 4.95 ± 0.07 µM, 0.0111 ± 0.00076 µM and 7.41 ± 0.18 µM.
The corresponding values for `NC1=CC(c2ccc([N+](=O)[O-])cc2)=NC2Oc3[nH]c(=O)[nH]c(=O)c3C(c3cccs3)C12` (centres unmarked) [Compound S8, 6-amino-8-(4-nitrophenyl)-5-(thiophen-2-yl)-1,5,5a,9a-tetrahydro-2H-pyrido[3′,2':5,6]pyrano[2,3-d]pyrimidine-2,4(3H)-dione] are 0.66 ± 0.05 µM, 0.0158 ± 0.00086 µM and 2.76 ± 0.06 µM.
In the same order, the values of `O=c1[nH]c2c(c(=O)[nH]1)C(c1cccs1)c1[nH]c(=S)n(-c3ccccc3)c(=O)c1O2` (centres unmarked) [Compound S7, 3-phenyl-10-(thiophen-2-yl)-2-thioxo-2,3,6,10-tetrahydro-1H-pyrano[2,3-d:5,6-d']dipyrimidine-4,7,9(8H)-trione] are 1.28 ± 1.12 µM, 0.00361 ± 0.00015 µM and 46.9 ± 1.82 µM.
For `CONC1=C(C#N)Oc2[nH]c(=O)[nH]c(=O)c2C1c1cccs1` (centres unmarked) [Compound S6, 6-(methoxyamino)-2,4-dioxo-5-(thiophen-2-yl)-2,3,4,5-tetrahydro-1H-pyrano[2,3-d]pyrimidine-7-carbonitrile], the IC50 is 3.12 ± 0.11 µM in the test with MCF-7 cells, 0.115 ± 0.00722 µM on PARP-1 (setting [1]) and 2.85 ± 0.03 µM in the test on HCT116 cells.
`Nc1nc(S)nc2c1Oc1[nH]c(=O)[nH]c(=O)c1C2c1cccs1` (centres unmarked) [Compound S2, 4-amino-2-mercapto-10-(thiophen-2-yl)-6,10-dihydro-7H-pyrano[2,3-d:5,6-d']dipyrimidine-7,9(8H)-dione]: the IC50 was 2.65 ± 0.05 µM in the test with MCF-7 cells, 0.00406 ± 0.00018 µM on PARP-1 (setting [1]) and 9.31 ± 0.34 µM with HCT116 cells.
In the same order, the values of `Cc1nc(O)c2c(n1)Oc1[nH]c(=O)[nH]c(=O)c1C2c1cccs1` (centres unmarked) [Compound S10, 6-hydroxy-8-methyl-5-(thiophen-2-yl)-1,5-dihydro-2H-pyrano[2,3-d:6,5-d']dipyrimidine-2,4(3H)-dione] are 4.48 ± 0.43 µM, 0.0162 ± 0.00088 µM and 12.1 ± 0.64 µM.
